Reference: patent US9751824B2, “Acetyl salicyclic acid dimers, synthesis thereof, and uses thereof to prevent and treat complement-mediated disorders” (Aurin Biotech Inc., priority 2013, dated 2017)

Key:
[1] = test system: classical complement pathway; assay: CH50 assay, hemolysis of sensitized human red blood cells by zymosan-activated human serum; format: cell-based; conditions: for IC50: Erythrocyte, zymosan-activated human serum, read-out: IC50, protection of human red blood cells from complement attack
Experimental: (§1) To evaluate the strength of blockade of the classical complement pathway achieved by DAS-1 and DAS-2, a standard CH50 assay was employed. Normal human red blood cells were sensitized by incubation overnight with rabbit anti red blood cell antibody. Then dilutions of serum activated by zymosan, with and without various amounts of DAS-1, DAS-2, or the precursor acetylsalicylic acid, were incubated with the sensitized red blood cells for 1 hour at 37° C. The incubates were centrifuged at 5,000 rpm for 10 min. The hemoglobin released into the serum from red blood cells that had been destroyed by complement attack, was determined by reading the optical density (OD) at 405 nm. As a positive control, red blood cells were 100% lysed with water, and as a negative control, no serum was added to the incubate.
(§2) DAS-1 and DAS-2 protected human red blood cells from complement attack by zymogen activated serum of human, rat, cat, and dog. FIG. 3A illustrates the result for DAS-1.

[2] = test system: classical complement pathway; assay: CH50 assay, hemolysis of sensitized human red blood cells by zymosan-activated cat serum; format: cell-based; conditions: Felis catus, Erythrocyte, read-out: IC50, protection of human red blood cells from complement attack
Experimental: as §1, §2

[3] = test system: C3 convertase of the alternative pathway; assay: Western blot of red blood cell membranes, alternative pathway with C1 inhibitor (FIG. 5); format: cell-based, human; conditions: 1 microM; serum 15 fold dilution, zymosan, C1 inhibitor 1.8 micrograms/mL
Experimental: To determine the effects of DAS-1 and DAS-2 on the alternative pathway, further experiments were carried out as shown in FIG. 5. […] To these mixtures human RBCs (5×10^9) were added. The mixtures were incubated for 1 h at 37° C. and centrifuged at 5,000 rpm for […]. The pellets were washed two times with Hank's balanced salt solution (HBSS) and treated with sample loading buffer for SDS-PAGE and immunoblotting. The buffer consisted of 50 mM Tris (pH 6.8), 0.1% SDS, 0.1% bromophenol blue and 10% glycerol. To preserve the molecular complexes that had formed, mild conditions for SDS-PAGE were followed. The sample loading buffer used was 50 mM Tris (pH 6.8), 1% SDS, 0.1% bromophenol blue and 10% glycerol and 2% beta-mercaptoethanol.
However an independent band for C3b was not detected. […] Lanes 3 and 4 show the results obtained in the presence of 1 microM of DAS-1 or DAS-2. […] Instead, strong bands for the earlier steps of PC3b and PC3bB appeared.

[4] = target: T1, C5b-9 membrane attack complex (Homo sapiens, UniProt P02748); assay: Western blot of membrane attack complex assembly stage with C6, C7, C8, C9 antibodies (FIG. 4B); format: cell-based; conditions: western blots probed with antibodies to C6, C7, C8 and C9
T1 construct: from tissue; host or cells: human serum, with human red blood cells as the target membrane
Experimental: To determine at which stage of the complement cascade blockade was occurring, a variation of the CH50 assay was carried out. Instead of measuring hemolysis, western blot analyses of red blood cell membranes were carried out to determine which serum complement proteins were converted into activated complement products that became attached to susceptible membranes. Such attachment only occurs up to the stage of blockade. At stages beyond the blockade, they remain unchanged in the serum. Undiluted human serum was treated for 30 min with DAS-1, DAS-2, or acetyl salicylic acid. Then antibody-conjugated red blood cells in an equal volume were added. The mixtures were incubated at 37° C. for 1 h. They were then treated with a lysis buffer followed by a loading buffer for western blots. Equal amounts of protein from each sample were loaded onto gels and separated by 10% SDS-PAGE. Following SDS-PAGE, proteins were transferred to a PVDF membrane. The membranes were then treated with various primary antibodies followed by labeled secondary antibodies using well established techniques. Bands recognized by the antibodies were visualized by use of an enhanced chemiluminescence system and exposure to photographic film. […] The C6 antibody detected C5b6, C5b67, and C5b678. The C7 antibody detected C5b67 and C5b678, while the C8 antibody detected C5b678. […]

[5] = test system: classical complement pathway; assay: CH50 assay, hemolysis of sensitized human red blood cells by zymosan-activated dog serum; format: cell-based; conditions: Canis lupus familiaris, Erythrocyte, read-out: IC50, protection of human red blood cells from complement attack
Experimental: as §1, §2

Factor B = target: T2, Factor B (Homo sapiens, UniProt P00751); assay: Fluorometric binding to immobilized protein (FIG. 6); conditions: compound 100 microgm/mL; protein 32 ng/mL
T2 construct: purchased Sigma, St. Louis, MO
Experimental: (§3) The next set of experiments directly tested the binding of DAS-1 and DAS-2 to properdin, Factor D and complement proteins. These proteins were immobilized on microwell plates in a concentration range of 1-32 ng/mL. DAS-1 and DAS-2 were then added at a concentration of 100 microgm/mL and the solutions incubated as previously described. DAS-1 and DAS-2 binding to the proteins was then assayed according to a previously published fluorometric method except that the excitation frequency was […] and the emission frequency […]. […] Such binding explains why DAS-1 and DAS-2 block the alternative pathway at the stage where Factor D cleaves PC3B to form PC3Bb, and both the classical and alternative pathways at the stage where C9 adds to C5b678. […] There was no binding of DAS-1 or DAS-2 to properdin and only background fluorescence was observed.

C2 = target: T3, C2 (Homo sapiens, UniProt P06681); assay: as above; conditions: compound 100 microgm/mL; protein 32 ng/mL
T3 construct: purchased Sino Biologicals Inc., Beijing, China
T3 sequence (P06681 21-752): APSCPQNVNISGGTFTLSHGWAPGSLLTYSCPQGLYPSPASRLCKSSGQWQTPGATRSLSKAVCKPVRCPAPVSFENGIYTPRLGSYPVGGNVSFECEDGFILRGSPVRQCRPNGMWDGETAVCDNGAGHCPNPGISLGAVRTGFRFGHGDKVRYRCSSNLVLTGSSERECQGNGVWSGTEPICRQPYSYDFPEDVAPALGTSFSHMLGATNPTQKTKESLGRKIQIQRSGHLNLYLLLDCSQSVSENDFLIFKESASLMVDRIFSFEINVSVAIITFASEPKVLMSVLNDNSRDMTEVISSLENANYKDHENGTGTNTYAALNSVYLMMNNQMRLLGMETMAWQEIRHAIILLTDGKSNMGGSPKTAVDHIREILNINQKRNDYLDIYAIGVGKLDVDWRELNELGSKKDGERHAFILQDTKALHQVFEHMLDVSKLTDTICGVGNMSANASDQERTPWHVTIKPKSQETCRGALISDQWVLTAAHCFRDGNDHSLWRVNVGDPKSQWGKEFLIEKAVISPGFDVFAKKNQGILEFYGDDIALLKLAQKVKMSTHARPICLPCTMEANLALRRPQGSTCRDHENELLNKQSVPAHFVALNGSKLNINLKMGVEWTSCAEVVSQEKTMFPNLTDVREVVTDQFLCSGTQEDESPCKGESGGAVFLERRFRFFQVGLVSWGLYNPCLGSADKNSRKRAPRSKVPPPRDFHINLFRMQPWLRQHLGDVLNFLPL
Experimental: as §3

C3 = target: T4, C3 (Homo sapiens, UniProt P01024); assay: as above; conditions: compound 100 microgm/mL; protein 32 ng/mL
T4 construct: purchased Sigma, St. Louis, MO
Experimental: as §3

Factor D = target: T5, Factor D (Homo sapiens, UniProt P00746); assay: as above; conditions: compound 100 microgm/mL; protein immobilized 1-32 ng/mL
T5 construct: purchased Quidel, San Diego, CA
Experimental: as §3

C9 = target: T6, C9 (Homo sapiens, UniProt P02748); assay: as above; conditions: compound 100 microgm/mL; protein immobilized 1-32 ng/mL
T6 construct: purchased Sigma, St. Louis, MO
Experimental: as §3

C6 = target: T7, C6 (Homo sapiens, UniProt P13671); assay: as above; conditions: compound 100 microgm/mL; protein 32 ng/mL
T7 construct: purchased Sigma, St. Louis, MO
Experimental: as §3

properdin = target: T8, properdin (Homo sapiens, UniProt P27918); assay: as above; conditions: compound 100 microgm/mL; only background fluorescence
T8 construct: purchased Quidel, San Diego, CA
Experimental: as §3

C5 = target: T9, C5 (Homo sapiens, UniProt P01031); assay: as above; conditions: compound 100 microgm/mL; protein 32 ng/mL
T9 construct: purchased Complement technology Inc., Tyler, TX
Experimental: as §3

C8 = target: T10, C8 (Homo sapiens, UniProt P07357+P07358+P07360); assay: as above; conditions: compound 100 microgm/mL; protein 32 ng/mL
T10 construct: purchased Sigma, St. Louis, MO
Experimental: as §3

C7 = target: T11, C7 (Homo sapiens, UniProt P10643); assay: as above; conditions: compound 100 microgm/mL; protein 32 ng/mL
T11 construct: purchased Quidel, San Diego, CA
Experimental: as §3

[6] = target: T1, C5b-9 membrane attack complex; assay: Western blot of red blood cell membranes, classical pathway (FIG. 4A); format: cell-based; conditions: zymosan-activated human serum, alternative pathway blocked by antibodies to properdin and Factor D
Experimental: To determine at which stage of the complement cascade blockade was occurring, a variation of the CH50 assay was carried out. Instead of measuring hemolysis, western blot analyses of red blood cell membranes were carried out to determine which serum complement proteins were converted into activated complement products that became attached to susceptible membranes. Such attachment only occurs up to the stage of blockade. At stages beyond the blockade, they remain unchanged in the serum. Undiluted human serum was treated for 30 min with DAS-1, DAS-2, or acetyl salicylic acid. Then antibody-conjugated red blood cells in an equal volume were added. The mixtures were incubated at 37° C. for 1 h. They were then treated with a lysis buffer followed by a loading buffer for western blots. Equal amounts of protein from each sample were loaded onto gels and separated by 10% SDS-PAGE. Following SDS-PAGE, proteins were transferred to a PVDF membrane. The membranes were then treated with various primary antibodies followed by labeled secondary antibodies using well established techniques. Bands recognized by the antibodies were visualized by use of an enhanced chemiluminescence system and exposure to photographic film. For probing the same membrane with different antibodies, the membranes were treated with stripping buffer and then treated as before with a different primary antibody. […] The adjacent lane illustrates the effect of adding to the serum zymosan to activate complement, and antibodies to properdin and Factor D to block the alternative pathway. Sensitized red blood cells then become hemolyzed by classical pathway attack. Native serum proteins are consumed and become incorporated into the red cell membranes. C1q was not metabolized, but the band was intensified due to its dissociation from the C1 complex. Native C3 was no longer detected because it had been cleaved, and the C3b fragment had become covalently attached to the membrane. Its degradation product C3d was detected. C4 was no longer detected because it had similarly been cleaved and the C4b fragment attached to the membrane and metabolized into its degradation product C4d. This fragment was also detected. C5 was cleaved and a band for the C5a product detected. Finally, the C5b-9 membrane attack complex, which had formed on the red cell membrane causing its hemolysis, was detected. The next two lanes show the effects of incubation in the presence of DAS-1, DAS-2. […] This establishes that the block provided by DAS-1 and DAS-2 was at the MAC assembly stage.

[7] = test system: classical complement pathway; assay: CH50 assay, hemolysis of sensitized human red blood cells by zymosan-activated rat serum; format: cell-based; conditions: Erythrocyte, read-out: IC50, protection of human red blood cells from complement attack
Experimental: as §1, §2

C4 = assay: Fluorometric binding to immobilized protein (FIG. 6); set-up: species or system human; conditions: compound 100 microgm/mL; protein 32 ng/mL
Experimental: as §3

T1 sequence (P02748 22-559, one chain of several): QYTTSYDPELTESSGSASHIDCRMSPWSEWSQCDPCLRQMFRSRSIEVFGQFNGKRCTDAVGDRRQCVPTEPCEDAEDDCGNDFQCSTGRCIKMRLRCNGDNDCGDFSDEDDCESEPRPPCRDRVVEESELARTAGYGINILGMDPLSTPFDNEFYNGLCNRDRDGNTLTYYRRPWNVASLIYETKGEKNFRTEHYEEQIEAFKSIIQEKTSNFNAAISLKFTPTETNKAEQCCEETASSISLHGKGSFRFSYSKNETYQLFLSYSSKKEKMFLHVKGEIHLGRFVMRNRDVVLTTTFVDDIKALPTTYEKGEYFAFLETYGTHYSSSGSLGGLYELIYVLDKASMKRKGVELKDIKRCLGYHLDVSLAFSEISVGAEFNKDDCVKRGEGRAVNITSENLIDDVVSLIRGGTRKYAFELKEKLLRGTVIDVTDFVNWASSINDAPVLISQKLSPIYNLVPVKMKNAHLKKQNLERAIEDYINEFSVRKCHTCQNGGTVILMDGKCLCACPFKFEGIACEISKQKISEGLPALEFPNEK
T10 sequence (P07357 31-584): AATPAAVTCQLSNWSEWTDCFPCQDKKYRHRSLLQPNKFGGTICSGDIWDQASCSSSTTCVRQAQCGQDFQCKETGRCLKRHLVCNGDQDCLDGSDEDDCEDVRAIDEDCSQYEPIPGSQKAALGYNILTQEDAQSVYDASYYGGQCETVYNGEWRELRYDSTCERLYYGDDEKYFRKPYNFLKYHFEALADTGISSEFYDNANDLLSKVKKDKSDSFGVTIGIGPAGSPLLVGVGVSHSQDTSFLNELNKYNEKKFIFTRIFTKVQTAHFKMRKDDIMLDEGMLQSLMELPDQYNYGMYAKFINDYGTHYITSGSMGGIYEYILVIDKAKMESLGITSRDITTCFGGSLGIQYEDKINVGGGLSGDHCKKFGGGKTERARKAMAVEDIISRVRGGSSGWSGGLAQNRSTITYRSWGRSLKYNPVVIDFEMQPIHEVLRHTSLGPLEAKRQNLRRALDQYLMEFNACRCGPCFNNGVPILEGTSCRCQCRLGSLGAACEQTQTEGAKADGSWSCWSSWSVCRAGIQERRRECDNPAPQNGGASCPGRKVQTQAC
T10 sequence (P07358 55-591): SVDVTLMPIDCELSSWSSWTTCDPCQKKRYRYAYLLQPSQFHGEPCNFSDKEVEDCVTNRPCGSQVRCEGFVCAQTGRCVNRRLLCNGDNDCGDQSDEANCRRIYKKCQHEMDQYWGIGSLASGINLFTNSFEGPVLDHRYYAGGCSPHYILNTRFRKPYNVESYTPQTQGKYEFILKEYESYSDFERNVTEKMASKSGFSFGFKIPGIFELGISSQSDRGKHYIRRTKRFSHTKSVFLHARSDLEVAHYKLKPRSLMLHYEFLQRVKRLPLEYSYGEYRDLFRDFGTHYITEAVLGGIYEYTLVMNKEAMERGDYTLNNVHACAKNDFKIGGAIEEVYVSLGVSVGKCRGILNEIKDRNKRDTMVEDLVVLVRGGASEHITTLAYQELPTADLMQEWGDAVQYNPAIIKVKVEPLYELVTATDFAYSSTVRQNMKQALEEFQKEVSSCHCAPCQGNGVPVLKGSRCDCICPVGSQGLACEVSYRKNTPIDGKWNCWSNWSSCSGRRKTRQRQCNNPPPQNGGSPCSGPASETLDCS
T10 sequence (P07360 21-202): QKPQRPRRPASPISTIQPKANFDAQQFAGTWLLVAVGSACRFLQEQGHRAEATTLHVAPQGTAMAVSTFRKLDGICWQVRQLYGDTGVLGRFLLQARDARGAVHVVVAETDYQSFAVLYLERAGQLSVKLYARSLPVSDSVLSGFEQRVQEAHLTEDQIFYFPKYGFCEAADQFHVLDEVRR
T5 sequence (P00746 26-253): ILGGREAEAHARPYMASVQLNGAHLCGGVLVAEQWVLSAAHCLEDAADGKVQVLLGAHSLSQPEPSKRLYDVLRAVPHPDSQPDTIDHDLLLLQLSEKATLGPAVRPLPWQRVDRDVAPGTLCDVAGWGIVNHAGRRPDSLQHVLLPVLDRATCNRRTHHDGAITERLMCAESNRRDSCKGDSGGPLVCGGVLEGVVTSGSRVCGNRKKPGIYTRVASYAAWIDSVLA
T8 sequence (P27918 28-469): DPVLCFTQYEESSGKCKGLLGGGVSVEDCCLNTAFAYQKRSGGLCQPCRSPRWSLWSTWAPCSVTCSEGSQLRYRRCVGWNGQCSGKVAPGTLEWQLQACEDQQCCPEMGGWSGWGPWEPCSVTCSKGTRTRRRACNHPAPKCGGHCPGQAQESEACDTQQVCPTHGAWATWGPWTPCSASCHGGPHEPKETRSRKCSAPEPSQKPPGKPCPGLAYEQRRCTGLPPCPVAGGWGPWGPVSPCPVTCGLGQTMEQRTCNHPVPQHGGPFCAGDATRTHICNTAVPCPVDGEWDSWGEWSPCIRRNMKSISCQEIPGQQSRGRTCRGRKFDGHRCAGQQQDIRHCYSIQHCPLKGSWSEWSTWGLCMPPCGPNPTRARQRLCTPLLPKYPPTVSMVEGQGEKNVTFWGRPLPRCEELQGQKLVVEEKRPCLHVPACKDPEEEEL
T9 sequence (P01031 19-1676): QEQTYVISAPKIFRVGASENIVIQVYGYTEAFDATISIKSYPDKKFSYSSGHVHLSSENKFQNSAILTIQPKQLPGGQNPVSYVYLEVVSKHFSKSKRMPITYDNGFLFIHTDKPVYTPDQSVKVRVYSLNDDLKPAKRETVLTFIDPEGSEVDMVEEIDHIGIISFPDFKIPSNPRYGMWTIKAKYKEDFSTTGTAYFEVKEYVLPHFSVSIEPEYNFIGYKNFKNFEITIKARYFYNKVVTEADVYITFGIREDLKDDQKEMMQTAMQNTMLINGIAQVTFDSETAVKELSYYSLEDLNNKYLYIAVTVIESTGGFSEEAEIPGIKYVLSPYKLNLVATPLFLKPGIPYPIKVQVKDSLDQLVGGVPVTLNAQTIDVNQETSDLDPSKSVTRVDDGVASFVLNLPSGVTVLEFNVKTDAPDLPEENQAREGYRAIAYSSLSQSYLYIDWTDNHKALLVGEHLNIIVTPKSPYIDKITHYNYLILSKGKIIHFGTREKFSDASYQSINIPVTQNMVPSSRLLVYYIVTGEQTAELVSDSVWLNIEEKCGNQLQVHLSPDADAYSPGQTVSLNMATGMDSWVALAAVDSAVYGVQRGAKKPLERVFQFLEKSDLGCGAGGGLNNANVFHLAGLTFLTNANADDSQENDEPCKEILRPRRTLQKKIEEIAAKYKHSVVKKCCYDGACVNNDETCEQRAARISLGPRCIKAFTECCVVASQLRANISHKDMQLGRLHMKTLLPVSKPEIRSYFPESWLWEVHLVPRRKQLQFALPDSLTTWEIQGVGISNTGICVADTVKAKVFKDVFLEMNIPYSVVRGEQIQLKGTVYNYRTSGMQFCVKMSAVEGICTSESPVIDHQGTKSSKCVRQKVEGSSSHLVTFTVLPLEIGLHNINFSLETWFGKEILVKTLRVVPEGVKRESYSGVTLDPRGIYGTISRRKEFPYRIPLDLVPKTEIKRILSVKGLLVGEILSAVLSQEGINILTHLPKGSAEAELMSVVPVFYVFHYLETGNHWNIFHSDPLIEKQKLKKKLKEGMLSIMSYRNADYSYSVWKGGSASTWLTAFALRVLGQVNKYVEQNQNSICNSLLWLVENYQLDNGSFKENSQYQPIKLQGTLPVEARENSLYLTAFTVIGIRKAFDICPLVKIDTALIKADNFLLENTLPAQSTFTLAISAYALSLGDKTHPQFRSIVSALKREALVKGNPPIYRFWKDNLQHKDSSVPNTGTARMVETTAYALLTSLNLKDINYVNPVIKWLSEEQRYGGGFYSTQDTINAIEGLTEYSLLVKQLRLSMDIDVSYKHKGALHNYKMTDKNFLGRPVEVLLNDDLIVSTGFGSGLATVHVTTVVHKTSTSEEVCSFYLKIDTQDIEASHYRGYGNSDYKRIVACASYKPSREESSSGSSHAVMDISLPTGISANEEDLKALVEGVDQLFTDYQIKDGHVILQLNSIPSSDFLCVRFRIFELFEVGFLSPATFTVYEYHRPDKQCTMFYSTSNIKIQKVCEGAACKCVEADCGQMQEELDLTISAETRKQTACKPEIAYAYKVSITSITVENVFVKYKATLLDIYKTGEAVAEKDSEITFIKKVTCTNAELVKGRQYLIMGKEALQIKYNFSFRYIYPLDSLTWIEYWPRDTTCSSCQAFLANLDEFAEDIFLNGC
T6 sequence (P02748 22-559): as the sequence (P02748 22-559, one chain of several) above

`CC(=O)Oc1ccccc1C(=O)O` [acetylsalicylic acid, reference compound] was tested, and the “protective effect against hemolysis (FIG. 3C)” value ([1]; added at 1 mM, serum species not singled out (FIG. 3 covers human, rat, cat, dog)) was “no protective effect”.
For `CC(=O)Oc1ccc(-c2ccc(OC(C)=O)c(C(=O)O)c2)cc1C(=O)O` [DAS-1, 4,4′-diacetoxy-[1,1′-biphenyl]-3,3′-dicarboxylic acid], the IC50 ([2]; 1 hour at 37° C., OD 405 nm) was 168 nM, the “bands for PC3bBb and PC3bBbC3b on RBC membranes” value [3] was “did not form” and the “bands for the earlier steps of PC3b and PC3bB on RBC membranes” value [3] was “strong bands”. The “stage at which membrane attack complex formation is arrested” value [4] was “arrested at the C8 stage”, the IC50 ([5]; 1 hour at 37° C., OD 405 nm) was 142 nM and the “binding to Factor B” value (Factor B) was “did not bind”. The “binding to C2” value (C2) was “did not bind”, the “binding to C3” value (C3) was “did not bind” and the “binding to Factor D” value (Factor D) was “bound strongly”. For the same compound, the “binding to C9” value (C9) was “bound strongly”, the “binding to C6” value (C6) was “did not bind” and the binding to properdin (properdin) was “no binding”. The “binding to C5” value (C5) was “did not bind”, the “binding to C8” value (C8) was “did not bind” and the “binding to C7” value (C7) was “did not bind”. The “bands for the opsonization steps versus unprotected lane” value [6] was “Identical bands”, the “detection of membrane attack complex on red cell membranes” value [6] was “not detected” and the “hemolysis of red cells” value [6] was “not hemolyzed”. For the same compound, the IC50 ([1]; 1 hour at 37° C., OD 405 nm) was 208 nM, the IC50 ([7]; 1 hour at 37° C., OD 405 nm) was 294 nM and the “binding to C4” value (C4) was “did not bind”.
In the case of `CC(=O)Oc1ccc(Cc2ccc(OC(C)=O)c(C(=O)O)c2)cc1C(=O)O` [DAS-2, 5,5′-methylenebis(2-acetoxybenzoic acid)], the IC50 ([2]; unit inferred) is reported as 128 nM, the “bands for PC3bBb and PC3bBbC3b on RBC membranes” value [3] is reported as “did not form” and the “bands for the earlier steps of PC3b and PC3bB on RBC membranes” value [3] is reported as “strong bands”. The “stage at which membrane attack complex formation is arrested” value [4] was “same results as in lane 3”, the IC50 ([5]; unit inferred) was 98 nM and the “binding to Factor B” value (Factor B) was “did not bind”. The “binding to C2” value (C2) was “did not bind”, the “binding to C3” value (C3) was “did not bind” and the “binding to Factor D” value (Factor D) was “bound strongly”. For the same compound, the “binding to C9” value (C9) was “bound strongly”, the “binding to C6” value (C6) was “did not bind” and the binding to properdin (properdin) was “no binding”. The “binding to C5” value (C5) was “did not bind”, the “binding to C8” value (C8) was “did not bind” and the “binding to C7” value (C7) was “did not bind”. The “bands for the opsonization steps versus unprotected lane” value [6] was “Identical bands”, the “detection of membrane attack complex on red cell membranes” value [6] was “not detected” and the “hemolysis of red cells” value [6] was “not hemolyzed”. For the same compound, the IC50 ([1]; unit inferred) was 113 nM, the IC50 ([7]; unit inferred) was 167 nM and the “binding to C4” value (C4) was “did not bind”.
